# Test results as given in US20150377889A1, “GALECTIN-3 AS A MARKER FOR PROSTATE CANCER” (Wayne State University, priority 2013, published 2015).
# How the values were obtained:
# [1] = system: co-cultured BAMEC and LNCaP cells; assay: Three-dimensional growth and tube formation assay, BAMEC/LNCaP co-culture on […]; assay type: cell-based, bovine, human; conditions: for tube formation: loops / tube formation: units of tubes: 10 μg/ml protein added to medium, 36 hr; for tube formation: loops: control 0; for tube formation: units of tubes: control 73; for branching morphogenesis of endothelial cells: 10 μg/ml protein, BAMEC/LNCaP co-culture
# Protocol: Three-dimensional Growth and Tube Formation Assay. To analyze in vitro angiogenesis and interactions between epithelial and endothelial cell formation of tubular networks by co-cultured BAMEC and LNCaP cells, a three-dimensional growth and tube formation assay was performed. Briefly, […]® (10 μl) was added to each chamber of the slide (μ-Slide, ibidi, Martinsried, Germany) and gelled by a 30-min incubation at room temperature, after which 15,000 BAMEC and 5000 LNCaP cells were plated onto the gel in 50 μl of Eagle's minimal essential complete medium. In some chambers, full-length galectin-3 or its fragments were added. After 36 hr, three-dimensional structures were observed under phase contrast microscope and photographed. Images were acquired with an Olympus IX71 microscope supporting a Hamamatsu ORCA-ER video camera. Tube formation image analysis was done using the web-based Image Analysis Win-Tube module of Wimasis online software.
# Three-dimensional heterotypic co-cultures of epithelial (LNCaP) and endothelial (BAMEC) cells were performed on […]® to study tube formation in the presence of 10 μg/ml galectin-3 and its fragments. […] FIG. 2B presents a quantitative evaluation of the tube formation assay.
# LNCaP cells = assay: Chemotaxis assay (Boyden chamber); assay type: cell-based, human; conditions: 10 μg/ml, 5 hr, compared with control or either of the two fragments
# Protocol: Chemotaxis. This assay was performed using a Boyden chamber (Neuroprobe). In the lower chamber, the chemo-attractant […]® (BD Biosciences) alone or mixed with various concentrations of recombinant galectin-3, galectin-3 1-107, or galectin-3 108-250 was added. LNCaP (5×10^4) cells suspended in basic DMEM were loaded in the upper chamber. The two chambers were separated by a polycarbonate filter of 5-micron pore size and incubated in a 37° C. tissue culture incubator for 5 hr, after which the filter was removed, the cells on top of the filter were wiped off, and the migrated cells were fixed, stained using Protocol Hema 3 stain set (Fisher Scientific), and counted under microscope. Each assay was carried out in triplicate.
# The effects of galectin-3 1-107 and 108-250 fragments, as well as full-length galectin-3 on migration of LNCaP cells in a chemotaxis assay were also tested.
# [2] = system: LNCaP, Du145, and PC3M cell lines; assay: Wound-healing (scratch) assay; assay type: cell-based, human; conditions: 24 hr, compared with the control
# Protocol: Wound-healing Assay. A wound-healing assay, the scratch assay, was performed according to the protocol published in Liang, et al. (2007), Nat. Protoc. 2, 329-333. Briefly, in this scratch assay 60-mm dishes were coated with ECM and incubated overnight, unbound ECM was removed and the dishes were blocked with bovine serum albumin. Subconfluent growing cells were resuspended in a tissue culture dish by washing cells with PBS, adding versene containing trypsin, and mixing cells with medium containing serum. Cells were then plated onto the prepared 60-mm dish to create a confluent monolayer, and incubated for 6 hr at 37° C.
# The cell lines LNCaP (null galectin-3), DU145 (stable clone with reduced galectin-3 expression), and PC3M were used to examine the effect of full-length galectin-3, galectin-3 1-107, and galectin-3 108-250 on prostate cancer cell motility using the scratch assay. The assay was performed with LNCaP, Du145, and PC3M cultured cell lines stimulated by full-length galectin-3, and fragments galectin-3 1-107 and 108-250. A uniform wound was made in each plate using a 1-μl pipette tip. The wound area was observed immediately, then at 24 hr after creation the cells were counted. Cells were grown under identical conditions.
Substance,tube formation: loops [1],tube formation: units of tubes [1] [units],branching morphogenesis of endothelial cells [1],migration of LNCaP cells toward MATRIGEL (LNCaP cells),prostate cancer cell motility [2]
"full-length galectin-3: recombinant full-length human galectin-3 protein (SEQ ID NO:1), overexpressed in Escherichia coli",12,127,induced branching morphogenesis,significantly higher,promotes prostate cancer cell motility
"galectin-3 108-250: recombinant fragment 108-250 of human galectin-3 (SEQ ID NO:3), contains carbohydrate recognition domain",0,76,failed to do so,–,did not show a significant increase in motility
